Data taken from US12582638B2, “Pharmaceutical composition for treating cancer, containing mTOR-signaling inhibitor as active ingredient” (KOREA ADVANCED INSTITUTE OF SCIENCE AND TECHNOLOGY, priority 2020, dated 2026).

Columns and labels:
Test in all cases: Cell viability, CellTiterGlo, 72 hours
Assay type in all cases: cell-based
COV434 = COV434 cells, Ovary
Experimental: In addition to the colorectal cells, 120 cancer cell lines treated with various concentrations of lomitapide were assayed for viability.
To analyze cell viability, the cells were incubated with lomitapide at 37° C. for 72 hours in a 5% or 10% CO2 atmosphere and then equilibrated at room temperature for 1 hour, followed by addition of CellTiterGlo reagent (Promega). One hour later, luminescence was measured to calculate cell viability (%). The 120 cell lines were purchased from ATCC (American Type Culture Collection, Virginia, USA).

NCI-H441 = conditions: Homo sapiens, NCI-H441 cells, Lung
How it was run: (§1)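 Viability was scored as a percentage from luminescence after lomitapide treatment at several concentrations at 37° C.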

LN229 = conditions: Homo sapiens, LN-229, LN229 cells, Brain
How it was run: as §1

SK-N-MC = conditions: Homo sapiens, SK-N-MC cells, Brain
How it was run: as §1

NCI-H1563 = conditions: Homo sapiens, NCI-H1563 cells, Lung
How it was run: as §1

DV90 = conditions: Homo sapiens, DV-90, DV90 cells, Lung
How it was run: as §1

H460 = conditions: Homo sapiens, NCI-H460, H460 cells, Lung
How it was run: as §1

T84 = conditions: Homo sapiens, T84 cells, Colon
How it was run: as §1

RKO = conditions: Homo sapiens, RKO cells, Colon
How it was run: as §1

NCI-H1437 = conditions: Homo sapiens, NCI-H1437 cells, Lung
How it was run: as §1

SK.BR-3 = conditions: Homo sapiens, SK.BR-3 cells, Breast
How it was run: as §1

NCI-H1573 = conditions: Homo sapiens, NCI-H1573 cells, Lung
How it was run: as §1

MDA MB 231 = conditions: Homo sapiens, MDA MB 231 cells, Breast
How it was run: as §1

MEC-1 = conditions: Homo sapiens, MEC1, MEC-1 cells, Blood
How it was run: as §1

KARPAS 299 = conditions: Homo sapiens, KARPAS 299 cells, Blood
How it was run: as §1

O=C(NC1CCN(CCCCC2(C(=O)NCC(F)(F)F)c3ccccc3-c3ccccc32)CC1)c1ccccc1-c1ccc(C(F)(F)F)cc1 [lomitapide, N-(2,2,2-trifluoroethyl)-9-[4-[4-[[[4′-(trifluoromethyl)[1,1′-biphenyl]2-yl]carbonyl]amino]-1-piperidinyl]butyl]-9H-fluoren-9-carboxamide]
IC50 (COV434): 3.1 µM | IC50 (NCI-H441): 3.2 µM | IC50 (LN229): 2.7 µM | IC50 (SK-N-MC): 2.4 µM | IC50 (NCI-H1563): 5.3 µM | IC50 (DV90): 5.2 µM | IC50 (H460): 3.8 µM | IC50 (T84): 3.2 µM | IC50 (RKO): 3.3 µM | IC50 (NCI-H1437): 3.1 µM | IC50 (SK.BR-3): 3.9 µM | IC50 (NCI-H1573): 4.7 µM | IC50 (MDA MB 231): 3.2 µM | IC50 (MEC-1): 3.3 µM | IC50 (KARPAS 299): 1.4 µM
